Reference: a melting point compilation (Tetko et al.; mined from patent text by program, amines drawn as free bases though some values may be those of a salt)
Residues, ends and D or L forms follow the SMILES beside them. *: point of attachment. Cbz = O=C(OCc1ccccc1)*

SMILES	melting point [°C]
CC(C)C[C@H](NC(=O)OC(C)(C)C)[C@@H](O)C[C@H](c1ccccc1)C(C)C	95 to 96
O=C(NCCCSc1ccncc1)c1ccsc1	121 to 122
COP(=O)(OC)C(c1ccc(F)cc1)(c1ccc(F)cc1)c1ccc(Cl)cc1	136 to 137
CNc1nc(OC(C)C)ccc1[N+](=O)[O-]	75 to 76
Nc1sc2c(c1C(=O)c1ccc(Cl)s1)CCN(Cc1ccccc1)C2	81 to 83
CCCC(=O)Nc1ccc(N2CCC(NC[C@H](O)COc3cccc4[nH]c(=O)[nH]c34)CC2)cc1	190 to 201
NC(=O)Cc1ccc(CCCOCCCCCCBr)cc1	110 to 113
Cc1cnc2c(=O)[nH]c3ccccc3n12	> 300
C=CCN(C)c1ccc(C(C#N)=C(C#N)C#N)cc1	155
Cc1c[nH]c2ccc(C#N)cc12	110 to 112
Cc1c(-c2ccccc2)oc2c(OCCN=[N+]=[N-])cccc2c1=O	119 to 120
COc1ccc(-c2cc(=O)c3c(OC)cc(OC)c(C4=CCN(C)CC4)c3o2)cc1	179 to 181
CC(C)Oc1ccc(-c2nn(C(C)c3oc4ccccc4c(=O)c3-c3cccc(F)c3)c3ncnc(N)c23)cc1Cl (stereo unspecified)	198 to 200
O=C1c2cc3nnn(CCCc4cccc(F)c4)c(=O)c3cc2OC2CCCN12 (stereo unspecified)	145 to 148
CN1CCN(c2ccc3nc(N)c(C#N)c(O)c3c2)CC1	156
CC(C)(C)OC(=O)N1CCC(N2C(=O)OCc3cc(Cl)ccc32)CC1	177 to 179
COC(=O)Cc1ccc2oc(-c3ccc(OC)c(OC)c3)c(SC)c2c1	91
Nc1ccc(F)c(Br)c1F	77 to 78
CC1=C(c2ccc(C(=O)N3Cc4cccn4Cc4ccccc43)cc2)CCCC1=O	95 to 97
Clc1ccc2c(c1)C(c1ccccc1Cl)=CCc1nncn1-2	189 to 190
CC(C)(C)OC(=O)N1CCC2(CC1)CC(c1ccc(Cl)cc1)=NO2	138 to 141
O=C(Nc1ccc(Oc2ccnc(NCC3CC3)n2)c2ccccc12)c1cc(F)cc(N2CCCCC2)c1	117 to 119
N#Cc1ccc(Oc2ccccc2)cc1C#N	98 to 100
COc1cc(C(O)c2c(O)c(=O)ccn2CCO)ccc1O (stereo unspecified)	179 to 190
CCCOc1ccc2[nH]c3c([N+](=O)[O-])ccc(Cl)c3c(=O)c2c1	174 to 175
Cc1ccc(S(=O)(=O)OCC2Cc3c(F)ccc(Br)c3O2)cc1 (stereo unspecified)	100 to 103

SMILES	melting point [°C]
CC(O)c1ccc(NS(C)(=O)=O)c(Sc2ccc(F)cc2F)c1 (stereo unspecified)	118 to 120
CC1CS(=O)C(c2cccs2)=NO1 (stereo unspecified)	114 to 115
O=C(Cn1c(-c2ccc(Cl)cc2)nc2cccnc21)Nc1nccs1	> 260
CCCOC(C)c1cccc2[nH]c3cnc(C(=O)OCC)c(COC)c3c12 (stereo unspecified)	127 to 130
COc1cc(OC)c2c(=O)[nH]c(-c3ccc(O)cc3)nc2c1	303 to 305
Cc1cccc(-n2c(CF)nc3ccc([N+](=O)[O-])cc3c2=O)c1C	178 to 180
Cc1ccc2c(c1)SC(c1ccc(OCCCCCBr)cc1)C(=O)N2C (stereo unspecified)	81 to 82
Cc1ccc(-c2ccc(S(C)(=O)=O)c(F)c2)n1-c1ccc(-c2ccoc2)cc1	147 to 150
CN1C(=O)Cc2cnc(N3CCN(C(c4ccccc4)c4ccccc4)CC3)nc21	75 to 80
CNc1c(NCCNCc2ccc(CN3CCCCC3)o2)c(=O)c1=O	145 to 147
CC(=O)OC1CSC(Oc2cncc(-c3ccnc(F)c3)c2)C(OC(C)=O)C1OC(C)=O (stereo unspecified)	122 to 125
CCc1ccc(OC)c(-c2cc(C(C)(C)C)c(O)c(C(C)(C)C)c2)c1	78 to 79
Cc1cc(OCc2nc3ccccc3s2)ccc1[N+](=O)[O-]	145 to 147
CCCC=CCC1CC(=O)N(c2cc(Cc3n[nH]c(=O)c4ccccc34)ccc2F)C1=O (stereo unspecified)	146 to 149
COc1ccc(-n2c(CC(=O)O)c(C(=O)O)c3cc(Oc4cc(C(F)(F)F)cc(C(F)(F)F)c4)ccc32)cc1	232
NC(=O)c1cnn2cccc2c1Nc1ccccc1	247
Cc1c(SCCSCc2ccncc2)ccnc1CNc1cnc2ccccc2c1	123 to 126
CC(C)COc1ccc(S(C)(=O)=O)cc1C(=O)O	149 to 153
COC(=O)C(Cc1ccccc1)NC(=O)C(CC(N)=O)NC(=O)OCc1ccccc1 (stereo not drawn) (Cbz-Asn-Phe-OMe; configuration not given here)	196 to 197
O=C(Cn1c(-c2ccc(Cl)cc2)nc2cccnc21)N(c1ccccc1)c1ccccc1	176 to 178
CCC1=Nc2cccc(Cl)c2C(=O)C1	236 to 239
CC1(C)CC(N)CC(C)(C)N1Cc1ccccc1	73 to 75
O=c1[nH]c2ccc(F)cc2c(=O)o1	240
CC(C)(C)c1ccc(/C=C/C(=O)Nc2ccc3c(ccn3CCO)c2)cc1	182
Cc1c(C(=O)O)oc2cc(O)c(Cl)cc12	279 to 280
CS(=O)(=O)c1ccc(-c2cc(C(CCCO[N+](=O)[O-])=NO)nn2C2CCCCC2)cc1	121 to 123

SMILES	melting point [°C]
COc1ccc2c(C(=O)O)c(OC)ccc2c1	153 to 155
Cn1cc(C(=O)C(Cl)Cl)c(=O)c(-c2cccc(F)c2)c1	183 to 184
CCCOc1nsc(N)c1C#N	122 to 125
CC(=O)c1ccc(CNC(=O)OC(C)(C)C)cc1	73 to 75
Cc1c(C(=O)CBr)ncn1C	276 to 277
CC(=O)c1cc(Cl)c(OCCOc2ccc3ccccc3c2)c(Cl)c1	110 to 111
O=P(O)(O)CCCCc1ccccc1	88 to 90
O=C(Nc1ccccc1)N1CC(Oc2cccc(C(F)(F)F)c2)C1	137 to 138
CCCN1N=C2C(=Cc3ccc(Cl)cc3)CSCC2C1c1ccc(Cl)cc1 (stereo unspecified)	118 to 122
Cc1cc(C(=O)N2Cc3ccc(C(=O)N(CCCN(C)C)CCCN(C)C)n3Cc3ccccc32)ccc1-c1ccccc1C(F)(F)F	55 to 64
COc1ccc2c(c1)C(=NO)c1c-2c(N2CCNCC2)nc2ccccc12	146 to 147
Cc1oc(C)c2c1C(=O)c1c(O)ccc(O)c1C2=O	255 to 256
OC1(c2ccc(Cl)cc2)c2ccc(Cl)cc2-c2ncncc21 (stereo unspecified)	194 to 196
CC(=O)Nc1c(C(=O)c2ccc(Cl)c(Cl)c2)[nH]c2cc(Cl)ccc12	169 to 171
C=C(C(=O)c1ccc(Cl)cc1)c1ccc(Cl)cc1Cl	90 to 93
Cc1ncncc1C(=O)Nc1ccc(-n2nc(C3CC3)cc2C2CC2)cc1	89 to 95
Nc1ccc(-c2noc(-c3cnc4ccc(-c5ccc(Cl)cc5)cn34)n2)cn1	273
CC(=O)CNc1ccc(/C=C/C(=O)O)cc1	213 to 215
O=C(O)[C@@H]1CCC(=O)N1C(=O)CCC1CCCC1	135 to 138
O=C(O)c1ccc(OCCCO/N=C/c2cc(C(F)(F)F)cc(C(F)(F)F)c2)cc1O	182 to 183
COC(=O)CSc1nc(N2CCN(c3ccccn3)CC2)ncc1[N+](=O)[O-]	199 to 202
Clc1ccc2cc(CBr)c3ccsc3c2c1	144 to 146
C=Cc1cc(OP(=O)(O)O)cc2nc(-c3ccc(OP(=O)(O)O)c(F)c3)oc12	> 180
CCCCCC1(C)OCc2c1cnc(C)c2O (stereo unspecified)	222
Cc1ccc2c(c1)N(CC(=O)c1cccs1)C(=O)C(NC(=O)Nc1cccc(C(=O)O)c1)CN2C(=O)c1cccs1 (stereo unspecified)	> 290
CCOC(=O)C(C#N)=CNNc1ccc(C(F)(F)F)cc1[N+](=O)[O-]	163 to 164

SMILES	melting point [°C]
CCCCCCNC(=O)OCCCNC(=O)OC1CCN(C(=O)Oc2ccc(Oc3ccccc3)cc2)CC1	90 to 92
CS(=O)(=O)c1ccc(/C(=C2\CCN(CCO)C2=O)c2ccc(Cl)cc2)cc1	187 to 188
CC12CCC3C4CCC(=O)C=C4CC(CCCCCCCCCCCO[Si](C)(C)C(C)(C)C)C3C1CCC2=O (stereo unspecified)	65
COC(=S)c1nc(Br)nc(C)c1Cl	105 to 106
CCOC(=O)c1c(C(F)(F)F)nc(C(F)(F)Cl)c(C(=O)OC)c1Nc1ccccc1	91 to 92
CC1(O)OC(=O)C(c2c(F)cc(F)cc2F)=C1Cc1ccc(Cl)cc1 (stereo unspecified)	127 to 129
O=C(NCC12CC3CC(CC(C3)C1)C2)c1cccc(O)c1Cl	234 to 235
CCCCOP(=O)(CCCCC1(C(=O)NCCC)c2ccccc2-c2cccnc21)OCCCC (stereo unspecified)	131 to 133
Cc1nc(-c2ccccc2)nc(-c2cccc([N+](=O)[O-])c2)c1CO	177 to 178
Cc1ncn(-c2cc(F)ccc2C#N)n1	117 to 118
N#CCc1ccc(N)c2[nH]ncc12	164 to 165
Cc1ccc(OCc2c(F)cccc2F)c(N)n1	121 to 123
Cc1nnc2n1-c1ccc(C#CCOc3ccccc3)cc1C(c1ccccc1Cl)=NC2	160 to 162
CC(C)(C)c1cc(C=C2SCN(CCN)C2=O)cc(C(C)(C)C)c1O	176 to 178
CCc1c(C)c(NC(=O)CC(C)(C)C)c(C)c2c1SCC2c1ccc(C(C)C)cc1 (stereo unspecified)	172 to 173
CNCCc1cccc(N2C(=O)N(c3c(Cl)cccc3Cl)Cc3cnc(Nc4ccccc4)nc32)c1	122 to 125
COc1ccc(-c2nn(C3CCCC3)c3c(C(F)(F)F)cccc23)c(OC)c1	79 to 80
CCc1ccccc1NC=C1C(=O)N(c2ccccn2)N=C1C	183
CC(C)(C)OC(=O)N[C@H]1CC[C@H](ON2C(=O)c3ccccc3C2=O)CC1	134 to 135
CCOC(=O)CCC(=O)Nc1cccc(/C=C/c2nc(C3CCC3)cs2)c1	98 to 100
CC(C)(C)[C@@H](O)c1cccc(-c2ccc(OCCO)cc2)n1	104
CC(CCN1C(=O)c2ccccc2C1=O)=NO	151 to 172
COC(=O)Cc1ccc(CNC(=O)C2Cc3ccccc3N2S(=O)(=O)c2ccc(-c3cccc(Cl)c3)cc2)cc1 (stereo unspecified)	70
